Source: BindingDB's records for doi:10.1021/acs.jmedchem.3c00363 (University of Regensburg, 2023)
Starred links: 1 amine or outer side, 2 acyl side, 3 side chain; linkers in the order of their positions; H or OH if unused. Non-standard residues stand in square brackets, D forms with d. Residues, ends and D or L forms follow the SMILES beside them. X1 = O=C([C@@H]1C[C@@H](c2ccccc2)[C@@H]1CN[*:1])[*:2]; X2 = O=C([C@H]1C[C@H](c2ccccc2)[C@H]1CN[*:1])[*:2]

Target: Neuropeptide Y receptor type 1 (Homo sapiens) (UniProt P25929)
Sequence (P25929 whole entry, looked up): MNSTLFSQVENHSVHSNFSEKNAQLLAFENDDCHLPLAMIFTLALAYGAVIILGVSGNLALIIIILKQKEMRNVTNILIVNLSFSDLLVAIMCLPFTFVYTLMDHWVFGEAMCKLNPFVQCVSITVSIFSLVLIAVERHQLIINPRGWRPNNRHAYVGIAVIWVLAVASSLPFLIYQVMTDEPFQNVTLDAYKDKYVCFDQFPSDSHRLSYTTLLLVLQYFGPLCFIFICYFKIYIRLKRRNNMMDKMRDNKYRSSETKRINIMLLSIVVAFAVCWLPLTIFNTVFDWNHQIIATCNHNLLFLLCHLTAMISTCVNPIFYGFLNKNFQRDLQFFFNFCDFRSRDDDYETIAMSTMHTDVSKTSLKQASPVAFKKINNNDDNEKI
Assay: Displacement of [3H]UR-MK299 from human Y1 receptor expressed in human SK-N-MC cells measured after 90 mins by MicroBeta plate counter based competition binding assay

SMILES | Ki [nM]
CC(=O)N[C@@H](CCCNC(=N)N)C(=O)NC[C@H]1[C@@H](C(=O)N[C@@H](CCCNC(=N)N)C(=O)NC[C@H]2[C@@H](C(=O)N[C@@H](CCCNC(=N)N)C(=O)N[C@@H](Cc3ccc(O)cc3)C(N)=O)C[C@@H]2c2ccccc2)C[C@@H]1c1ccccc1 (Ac-R[X2]R[X2]RY-NH2) | > 1050
CC(=O)N[C@@H](CCCNC(=N)N)C(=O)NC[C@@H]1[C@H](C(=O)N[C@@H](CCCNC(=N)N)C(=O)NC[C@@H]2[C@H](C(=O)N[C@@H](CCCNC(=N)N)C(=O)N[C@@H](Cc3ccc(O)cc3)C(N)=O)C[C@H]2c2ccccc2)C[C@H]1c1ccccc1 (Ac-R[X1]R[X1]RY-NH2) | > 1000
CC(=O)N[C@@H](CCCNC(=N)N)C(=O)NC[C@H]1[C@@H](C(=O)N[C@@H](CCCNC(=N)N)C(=O)N[C@@H](CC(C)C)C(=O)N[C@@H](CCCNC(=N)N)C(=O)N[C@@H](Cc2ccc(O)cc2)C(N)=O)C[C@@H]1c1ccccc1 (Ac-R[X2]RLRY-NH2) | > 3000
CC(=O)N[C@@H](CCCNC(=N)N)C(=O)NC[C@@H]1[C@H](C(=O)N[C@@H](CCCNC(=N)N)C(=O)N[C@@H](CC(C)C)C(=O)N[C@@H](CCCNC(=N)N)C(=O)N[C@@H](Cc2ccc(O)cc2)C(N)=O)C[C@H]1c1ccccc1 (Ac-R[X1]RLRY-NH2) | 230
CC(=O)N[C@@H](CCCNC(=N)N)C(=O)N[C@@H](Cc1ccc(O)cc1)C(=O)N[C@@H](CCCNC(=N)N)C(=O)N[C@@H](CC(C)C)C(=O)N[C@@H](CCCNC(=N)N)C(=O)N[C@@H](Cc1ccc(O)cc1)C(N)=O | 1180
